According to US8119661B2, “Piperidine derivatives and their use as muscarinic receptor modulators” (AstraZeneca AB, priority 2007, dated 2012):

Tests used:
[1] = test system: SNL rats (heat hyperalgesia); test: Rat SNL heat hyperalgesia assay; assay type: in vivo; conditions: sc, male Sprague Dawley SNL rats, paw withdrawal latency, morphine s.c. 30 min before testing, example 2 per os 60 min before testing, combination ratio example 2:morphine 1:1.56
Description: Rats undergo spinal nerve ligation surgery as described in Kim and Chung (1992) (reference 1). Briefly, rats are anesthetized with isoflurane, the left L5 and L6 are isolated and tightly ligated with 4-0 silk thread. The wound is closed by suturing and applying tissue adhesive. Compound testing is performed at day 9 to day 36 post-surgery.
For behavioral testing, the animals are acclimatized to the test room environment for a minimum of 30 min. In order to assess the degree of hyperalgesia, the animals are placed on a glass surface (maintained at 30° C.), and a heat-source is focused onto the plantar surface of the left paw. The time from the initiation of the heat until the animal withdraws the paw is recorded. Each animal is tested twice (with an interval of 10 min between the two tests). A decrease in Paw Withdrawal Latency (PWL, average of the two tests) relative to naïve animals indicates a hyperalgesic state. The rats with a PWL of at least 2 seconds less than average PWL of Naïve group are selected for compound testing. […]
In order to assess the degree of heat hyperalgesia, the rats were individually placed in Plexiglas boxes on the glass surface (maintained at 30° C.) of a paw thermal stimulator system (Model 390, series 8, IITC Life Science, Woodland Hills, USA) and allowed to acclimate for 30 min. […] Paw withdrawal latencies (PWLs) were calculated as the mean of the two values.

[2] = biological target: T1, hM1 (human Muscarinic receptor subtype 1) (Homo sapiens, UniProt P11229); test: Human M1 calcium mobilization FLIPR assay; assay type: cell-based; conditions: CHO cells expressing hM1, intracellular Ca2+ release
T1 construct: expressed in transfected cells; host or cells: CHO cells (Chinese hamster ovary cells, ATCC)
T1 sequence (P11229 1-460): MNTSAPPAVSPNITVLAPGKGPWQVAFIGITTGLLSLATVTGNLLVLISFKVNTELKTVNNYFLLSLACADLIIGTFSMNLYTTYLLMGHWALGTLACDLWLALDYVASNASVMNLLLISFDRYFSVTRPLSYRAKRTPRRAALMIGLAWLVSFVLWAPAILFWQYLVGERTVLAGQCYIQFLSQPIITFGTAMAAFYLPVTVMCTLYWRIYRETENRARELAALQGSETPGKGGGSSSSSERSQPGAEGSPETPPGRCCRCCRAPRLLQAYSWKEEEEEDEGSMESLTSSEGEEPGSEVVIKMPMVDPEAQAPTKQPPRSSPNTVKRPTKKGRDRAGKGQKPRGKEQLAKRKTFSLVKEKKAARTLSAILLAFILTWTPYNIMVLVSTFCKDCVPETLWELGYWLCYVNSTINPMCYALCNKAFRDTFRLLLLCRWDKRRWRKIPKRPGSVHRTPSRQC
Description: The compound activity in the present invention (EC50 or IC50) is measured using a 384 plate-based imaging assay that monitors drug induced intracellular Ca^2+ release in whole cells. Activation of hM1 (human Muscarinic receptor subtype 1, gene bank access NM_000738), rM1 (rat Muscarinic receptor subtype 1, gene bank access NM_080773), hM3 (human Muscarinic receptor subtype 3, gene bank access NM_000740NM_000740) and hM5 (human Muscarinic receptor subtype 5, gene bank access NM_0121258), receptors expressed in CHO cells (Chinese hamster ovary cells, ATCC) is quantified in a Molecular Devices FLIPR II™ instrument as an increase in fluorescent signal. Inhibition of hM3 and hM5 by compounds is determined by the decrease in fluorescent signal in response to 2 nM acetylcholine activation.
Prior to experiment, the cell culture medium is removed from the plates by inversion. […] Plates are incubated at 37° C. for 60 minutes prior to start the experiment. The incubation is terminated by washing the cells four times in assay buffer, leaving a residual 25 μl buffer per well. Cell plates are then transferred to the FLIPR, ready for compound additions.
The day of experiment, acetylcholine and compounds are diluted in assay buffer in three-fold concentration range (10 points serial dilution) for addition by FLIPR instrument. For all calcium assays, a baseline reading is taken for 10 seconds followed by the addition of 12.5 μl of compounds, resulting in a total well volume of 37.5 μl. Data is collected every second for 60 pictures and then every 6 seconds for 20 pictures prior to the addition of agonist. For hM3 and hM5, before agonist addition, a second baseline reading is taken for 10 seconds followed by the addition of 12.5 μl of agonist or buffer, producing a final volume of 50 μl. After agonist stimulation, the FLIPR continues to collect data every second for 60 pictures and then every 6 seconds for 20 pictures. The fluorescence emission is read using filter 1 (emission 510-570 nm) by the FLIPR on board CCD camera.
Calcium mobilization output data are calculated as the maximal relative fluorescence unit (RFU) minus the minimal value for both compound and agonist reading frame (except for hM1 and rM1 using only the maximal RFU). Data are analyzed using sigmoidal fits of a non-linear curve-fitting program (XLfit version 4.2.2 Excel add-in version 4.2.2 build 18 math 1Q version 2.1.2 build 18). All pEC50 and pIC50 values are reported as arithmetic means±standard error of mean of ‘n’ independent experiments.

| Compound | ED50 [1] | EC50 [2] |
| --- | --- | --- |
| CN1CC[C@]23c4c5ccc(O)c4O[C@H]2[C@@H](O)C=C[C@H]3[C@H]1C5 [Morphine, reference compound] | 3.8 µmol/kg |  |
| CC#CCOC(=O)N1CCC(C)(N2CCC(N3C(=O)N[C@H]4CCCC[C@@H]43)CC2)C1 (single isomer, unassigned) [Example 20] |  | 257 nM |
